Experimental data as given in patent publication US7981939B2, “Application of 2-bromide-isovanillin for the manufacture of a medicament for anti-cancer or/and radiation/chemotherapy sensitization” (Institute of Radiation Medicine, Academy of Military …, priority 2005, dated 2011).

Tests used:
[1] = test system: human cervical cancer cell line HeLa; test: Radiosensitizing activity with 2 Gy Co-60 γ radiation, HeLa, MTT assay; format: cell-based
Procedure: By way of example, human cervical cancer cell line HeLa was used to determine the radiosensitizing activity of 2-bromo-isovanillin.
Specifically, human cervical cancer cells HeLa were divided into six groups, diluted as appropriate, and plated into Petri dishes with a diameter of […]. The amount of cells plated in each Petri dish was 300/500 for 0 Gy group (without Co-60 γ radiation), or 400/800 for 2 Gy group. Once adherence was achieved, three groups were treated with 20 μmol/L 2-bromo-isovanillin (BVAN3208) for 0, 4 and 18 hrs, respectively and then irradiated with Co-60 γ ray at 2 Gy, followed by two weeks under conventional culturing conditions. As to the other three groups, one group was treated with 20 μmol/L 2-bromo-isovanillin (BVAN3208) for 72 hrs and then cultured for two weeks under conventional conditions, one group received irradiation with Co-60 γ ray at 2 Gy and then was cultured for two weeks under conventional conditions, and the remaining group as control received no treatment at all and was cultured for two weeks under conventional conditions. 48 hrs after irradiation with Co-60 γ ray, using MTT assay, the optical density (OD) values at 490 nm were measured and recorded, wherein the magnitude of OD value is indicative of cell number, i.e., cell proliferation. The results are shown in FIG. 5, wherein C represents the control group, R(2 Gy) represents the group treated with Co-60 γ ray alone, BVAN3208 represents the group treated with 20 μmol/L 2-bromo-isovanillin alone, and BVAN3208/0 h R, BVAN3208/4 h R and BVAN3208/18 h R respectively represent the groups treated with 20 μmol/L 2-bromo-isovanillin for 0, 4, 18 hrs before irradiation with Co-60 γ ray. The survival rates of the cancer cells treated with 2 Gy Co-60 γ ray radiation or 20 μmol/L 2-bromo-isovanillin for 72 hrs were 76% and 70%, respectively.

[2] = test system: ovarian cancer cell line A2780; test: Clonogenic assay, 6 days of continuous action, A2780; format: cell-based, human
Procedure: (§1) Human cervical cancer cell line HeLa, human liver cancer cell line HepG2/7221/7402, human ovarian cancer cell line HOC8/A2780, human glioma cell line BT325, lung cancer cell line A549, brain metastatic lung cancer cell line BT72 and normal human hepatic cell line LO2 were all grown in DMEM liquid medium supplemented with 10% newborn calf serum. Human leukemia cell line Jurkat was grown in 1640 medium supplemented with 10% newborn calf serum. The above cell lines were cultured in a CO2 incubator at 5% CO2 at 37° C.
(§2) By way of example, human cervical cancer cell line HeLa, lung cancer cell line A549, and ovarian cancer cell lines A2780 and HOC8 were used to determine the killing of cancer cells by 2-bromo-isovanillin for 6 days. Specifically, four groups were formed according to the type of the cancer cells. The cancer cells were diluted as appropriate, and were respectively plated into Petri dishes with a diameter of […], the amount of the cells adjusted depending on the concentration of 2-bromo-isovanillin to be added. Once adherence was achieved, each cell type received dosages of 0, 5, 10, 15, 20, 25, 30 and 35 μmol/L in triplicates. After 6 days of continuous action, the medium was replaced by a drug-free DMEM liquid medium. […] Then the cell clones were counted. The experimental data were expressed as the mean of 2-4 experiments and were plotted as a growth curve of cancer cells.

[3] = biological target: T1, nuclear protein DNA-PKcs serine/threonine protein kinase (Homo sapiens, UniProt P78527); test: DNA-PKcs kinase activity in nuclear protein of treated HepG2 cells; format: cell-based; settings: 24 hrs
T1 construct: adding nuclear proteins to the solid phase reaction system; endogenous in cells; host or cells: HepG2 human liver cancer cells (nuclear protein extract)
Procedure: The activity of nuclear protein DNA-PKcs serine/threonine protein kinase in human liver cancer cells HepG2 treated with 0, 10, 20, 40, 100 μmol/L 2-bromo-isovanillin for 24 hrs was determined by using […] DNA dependent protein kinase assay kit (Promega), according to the manufacturer's instructions, and the treatment with 100 μmol/L vanillin for the same period of time served as control. Basically, the assay was carried out by immobilizing the phosphorylation substrate specific to DNA-PKcs, i.e., a peptide derived from p53 protein onto a cellulose membrane, adding nuclear proteins to the solid phase reaction system, isotopically labeling the substrate by phosphorylation using γ-^32P ATP, removing non-specific signals after the isotope labeling, and visualizing the kinase activity upon X-ray film developing.

[4] = test system: human cervical cancer cell line HeLa; test: Clonogenic assay, 6 days of continuous action, HeLa; format: cell-based
Procedure: as §1, §2

[5] = test system: human liver cancer cell line HepG2; test: Clonogenic assay, HepG2 compared with normal hepatic cells LO2; format: cell-based; settings: 5-80 μmol/L, 24 hrs
Procedure: By way of example, human liver cancer cell line HepG2 and normal human hepatic cell line LO2 were used to study the inhibitory effect of 2-bromo-isovanillin on the growth of liver cancer cells and normal cells by clonogenic assay. Specifically, five groups were formed according to the drug concentration, and the liver cancer cells HepG2 and normal hepatic cells LO2 were respectively treated with 5, 10, 20, 40 and 80 μmol/L 2-bromo-isovanillin for 24 hrs. Then cell survival was measured by clonogenic assay (FIG. 8). In addition, the cell cycle profile and apoptotic effect were compared using flow cytometry.

[6] = test system: HeLa, HepG2/7221/7402, HOC8/A2780, BT325, A549, BT72 and IB-4 cancer cell lines; test: Clonogenic assay, 24 hrs of continuous action, ten cancer cell lines; format: cell-based, human; settings: 5, 10, 20 and 40 μmol/L
Procedure: as §1
By way of example, human cervical cancer cell line HeLa, human liver cancer cell lines HepG2/7221/7402, human ovarian cancer cell lines HOC8/A2780, human glioma cell line BT325, lung cancer cell line A549, brain metastatic lung cancer cell line BT72 and prostate cancer cell line IB-4 were used to determine the killing of cancer cells by 2-bromo-isovanillin for 24 hrs. Specifically, ten groups were formed according to the type of the cancer cells. The cancer cells were diluted as appropriate, and were respectively plated into Petri dishes with a diameter of […], the amount of the cells adjusted depending on the concentration of 2-bromo-isovanillin to be added. […] Then the cell clones were counted. The experimental data were expressed as the mean of […] and were plotted as a growth curve of cancer cells, as shown in FIG. 3.

tumor cells = test: Tumor inhibition upon administration for 6 consecutive days (summary statement)

## COc1ccc(C=O)c(Br)c1O [2-bromo-isovanillin, 2-bromo-3-hydroxy-4-methoxybenzaldehyde]
[1]; 20 μmol/L for 72 hrs alone, no radiation
  survival rate: 70%
[1]; 20 μmol/L, 2 Gy radiation 4 hrs after administration
  cell survival rate: about 51%
[1]; 20 μmol/L, 2 Gy radiation 18 hrs after administration
  cell survival rate: ~21%
[1]; 20 μmol/L, 2 Gy radiation immediately (0 h) after administration
  cell survival rate: about 51%
[1]; 20 μmol/L, pretreatment 18 hrs prior to 2 Gy radiation
  sensitization ratio: 3.32
[2]; A2780, 20 μmol/L
  survival rate: lower than 10%
[2]; A2780, 30 μmol/L
  proliferation: completely inhibited
[3]; HepG2, 20 μmol/L
  effect on DNA-PKcs kinase activity: significantly inhibited
[3]; HepG2, 40-100 μmol/L, compared with 20 μmol/L
  inhibitory effect on DNA-PKcs kinase activity: more remarkable
[4]; 20 μmol/L
  survival rate: lower than 10%
[4]; 30 μmol/L
  proliferation: completely inhibited
[5]
  killing effect on HepG2 compared with normal hepatic cells: significantly higher
[6]
  effect on the proliferation of all ten cancer cell lines: significant inhibitory effect
Tumor cells
  tumor inhibition: 80-95%
